# Experimental data: patent publication US20060194823A1, “Sulfonamido-macrocycles as Tie2 inhibitors and the salts thereof, a pharmaceutical composition comprising these compounds, the method of preparing and the use thereof” (priority 2004, published 2006)
# Target: T1, Tie-2-Kinase (Homo sapiens, UniProt Q02763)
# T1 construct: made in house
# Experiment: Tie-2-Kinase HTRF-Assay
# Format: biochemical
# Details: either in the Tie2 kinase assay or in the Tie2 autophosphorylation ELISA test; read-out: IC50, inhibit Tie2
# Source text: Tie-2 phosphorylates tyrosine residues of the artificial substrate polyGAT (biotinylated polyGluAlaTyr). Detection of phosphorylated product is achieved specifically by a trimeric detection complex consisting of the phosphorylated substrate, streptavidin-XLent (SA-XLent) which binds to biotin, and Europium Cryptate-labeled anti-phosphotyrosine antibody PT66 which binds to phosphorylated tyrosine. Excitation of Europium fluorescence with 337 nm light results in emission of long-lived light with 620 nm. In case a trimeric detection complex has formed, part of the energy will be transferred to the SA-XLent fluorophore that itself then emits long-lived light of 665 nm (FRET: fluorescence resonance energy transfer). […] Measurement is performed in a Packard Discovery or BMG Rubystar instrument. A-counts (emission at 665 nm) will be divided by B-counts (emission at 620 nm) and multiplicated with a factor of 10000. The resulting numbers are called the “well ratio” of the sample.
# • Enzyme: Tie-2-Kinase, in house, aliquots (12×10 mL) stored at −80° C. • Substrate: PolyGAT labeled with Biotin (1000 μg/mL); ClS Bio; # 61GATBLB; • aliquots stored at −20° C. • ATP: Amersham Pharmacia Biotech Inc. # 27-2056-01; 100 mM; stored at −20° C. • Antibody: PT66-Eu Cryptate; CIS Bio; # 61T66KLB; 30 μg/mL; aliquots stored at −20° C. • SA-XLent; CIS Bio; # 611SAXLB; 1000 μg/mL; aliquots stored at −80° C. • Microplates: 384 Well black, SV, Greiner, # 784076 Solutions: Assay Buffer: • 50 mM HEPES (pH 7.0), 25 mM MgCl2, 5 mM MnCl2, 1 mM DTT, 0.5 mM Na3VO4, 0.01% (v/v) NP40, 1× Complete EDTA free Enzyme Working Solution: • Tie-2 stock solution is diluted 1:250 in assay buffer Substrate Working Solution: • PolyGAT (1000 μg/mL; 36.23 μM) is diluted 1:90.6 to 400 nM or 77.3 ng/well, ATP (100 mM) is diluted 1:5000 to 20.0 μM. Both dilutions in assay buffer. Final assay concentrations: poly-GAT: 200 nM or 5.25 μg/mL, ATP: 10 μM (1×Km each). • Detection solution: 50 mM HEPES (pH 7.0), BSA 0.2%, 0.6 M KF, 200 mM EDTA, PT66-Europium Cryptate 2.5 ng/well, SA-XLent Cis Bio 90 ng/well. Assay Steps All Steps at 20° C. • 1. 0.75 μL of compound solution in 30% (v/v) DMSO • 2. add 7 μL of substrate working solution • 3. add 7 μL of enzyme working solution • 4. incubate 75 min (reaction volume: 14.75 μL) • 5. add 8 μL of detection solution • 6. incubate 180 min or over night at 4° C. (total volume: 22.75 μL) • 7. measure HTRF in Packard Discovery or BMG Rubystar instrument (delay 50 μs, integrated time 400 μs) Final Concentrations (in 14.75 μL Reaction Volume): • Enzyme: unknown • polyGAT (1×Km): 200 nM (77.3 ng) • ATP (1×Km): 10 μM • DMSO: 1.5% (v/v) • Buffer conditions: 50 mM HEPES (pH 7.0), 25 mM MgCl2, 5 mM MnCl2, 1 mM DTT, 0.5 mM NaVO4, 0.01% (v/v) NP40, 1× Complete Controls: • C0: uninhibited reaction (DMSO only) • Ci: inhibited reaction with 20 μM Staurosporine Biological Experiment 3: Proliferation Test
# T1 sequence (Q02763 23-1124): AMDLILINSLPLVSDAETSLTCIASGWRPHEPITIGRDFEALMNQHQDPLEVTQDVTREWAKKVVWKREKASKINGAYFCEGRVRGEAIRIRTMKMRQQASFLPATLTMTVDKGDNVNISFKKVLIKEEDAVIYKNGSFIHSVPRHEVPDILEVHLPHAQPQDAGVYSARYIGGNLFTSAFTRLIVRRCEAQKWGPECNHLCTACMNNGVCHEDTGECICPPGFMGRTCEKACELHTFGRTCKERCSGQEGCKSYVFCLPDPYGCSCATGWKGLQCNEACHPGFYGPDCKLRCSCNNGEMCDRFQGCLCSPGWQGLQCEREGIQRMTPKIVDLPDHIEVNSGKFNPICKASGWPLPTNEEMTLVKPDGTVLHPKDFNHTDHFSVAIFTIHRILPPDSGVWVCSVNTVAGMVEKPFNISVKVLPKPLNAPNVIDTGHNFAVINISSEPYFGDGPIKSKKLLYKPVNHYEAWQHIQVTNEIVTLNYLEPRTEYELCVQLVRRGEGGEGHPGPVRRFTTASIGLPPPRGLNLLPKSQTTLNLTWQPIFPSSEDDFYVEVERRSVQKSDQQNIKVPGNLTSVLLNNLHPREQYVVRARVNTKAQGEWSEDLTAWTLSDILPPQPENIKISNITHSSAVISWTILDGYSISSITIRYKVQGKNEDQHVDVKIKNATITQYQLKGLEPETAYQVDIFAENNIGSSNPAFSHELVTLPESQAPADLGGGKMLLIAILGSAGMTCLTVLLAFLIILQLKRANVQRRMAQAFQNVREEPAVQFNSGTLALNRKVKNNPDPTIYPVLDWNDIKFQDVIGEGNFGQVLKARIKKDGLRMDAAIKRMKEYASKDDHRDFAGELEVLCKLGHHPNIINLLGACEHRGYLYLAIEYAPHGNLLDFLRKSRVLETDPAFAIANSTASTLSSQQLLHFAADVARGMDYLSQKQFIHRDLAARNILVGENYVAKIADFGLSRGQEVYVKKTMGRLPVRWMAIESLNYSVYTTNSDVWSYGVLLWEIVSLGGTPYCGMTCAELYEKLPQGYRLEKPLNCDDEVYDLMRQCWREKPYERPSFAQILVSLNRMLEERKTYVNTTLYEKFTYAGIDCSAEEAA
row,IC50 [nM],SMILES
1,≤ 1000,"O=S1(=O)NCCCNc2nc(ncc2-c2ccc3c(c2)OCO3)Nc2cccc1c2 [Example 1, 1^5-(1,3-benzodioxol-5-yl)-4-thia-2,5,9-triaza-1(2,4) pyrimidina-3(1,3)-benzenacyclonona-phane 4,4-dioxide]"
2,≤ 1000,"O=C(COc1ccc(-c2cnc3nc2NCCCNS(=O)(=O)c2cccc(c2)N3)cc1)c1ccc(F)cc1 [Example 2, 2-[4-[4,4-dioxo-4λ^6-thia-2,5,9-triaza-1(2,4)-pyrimidina-3(1,3)-benzenacyclo-nonaphan-1^5-yl]phenoxy]-1-(4-fluorophenyl)-ethanone]"
3,≤ 1000,"O=C(COc1ccc(-c2cnc3nc2NCCCNS(=O)(=O)c2cccc(c2)N3)cc1)c1ccccc1 [Example 3, 2-[4-[4,4-dioxo-4λ^6-thia-2,5,9-triaza-1(2,4)-pyrimidina-3(1,3)-benzenacyclo-nonaphan-1^5-yl]phenoxy]-1-phenylethanone]"
4,≤ 1000,"O=C(Nc1ccccc1)Nc1ccc(-c2cnc3nc2NCCCNS(=O)(=O)c2cccc(c2)N3)cc1 [Example 8, N-[4-[4,4-dioxo-4λ^6-thia-2,5,9-triaza-1(2,4)-pyrimidina-3(1,3)-benzena-cyclononaphan-1^5-yl]phenyl]-N′-phenylurea]"
5,≤ 1000,"O=C(Nc1ccc(-c2cnc3nc2NCCCNS(=O)(=O)c2cccc(c2)N3)cc1)Nc1cccc(C(F)(F)F)c1 [Example 9, N-[4-[4,4-dioxo-4λ^6-thia-2,5,9-triaza-1(2,4)-pyrimidina-3(1,3)-benzena-cyclononaphan-1^5-yl]phenyl]-N′-[3-(trifluoromethyl)-phenyl]urea]"
6,≤ 1000,"O=C(Nc1ccc(-c2cnc3nc2NCCCNS(=O)(=O)c2cccc(c2)N3)cc1)Nc1cc(C(F)(F)F)ccc1F [Example 10, N-[4-[4,4-dioxo-4λ^6-thia-2,5,6-triaza-1(2,4)-pyrimidina-3(1,3)-benzena-cyclononaphan-1^5-yl]phenyl]-N′-[2-fluoro-5-(trifluoromethyl)-phenyl]urea]"
7,≤ 1000,"COc1ccc(S(=O)(=O)Nc2ccc(-c3cnc4nc3NCCCNS(=O)(=O)c3cccc(c3)N4)cc2)cc1 [Example 23, N-[4-[4,4-dioxo-4λ^6-thia-2,5,9-triaza-1(2,4)-pyrimidina-3(1,3)-benzena-cyclononaphan-1^5-yl]phenyl]-4-methoxybenzene-sulfonamide]"
